This note sets out measurements from ChEMBL document CHEMBL1201862, “PubChem BioAssay data set” (2004).

Test systems include 786-0; COLO 205; EKVX; HOP-92; IGROV-1; K562; M14; MCF7; MDA-MB-231; OVCAR-8; RPMI-8226; RXF 393; SF-295; SF-539; SK-MEL-28; SK-OV-3; SNB-75; SW-620; TK-10; UACC-62.
What all share (experiment): NCI anticancer screen, dose series, 48 h

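Results reflect a 48-hour exposure of cells in 96-well plates to compound at five concentrations. Here, GI50 denotes the concentration required for 50% inhibition of growth.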 Calls of active or inactive are those of the source. Cut-off read from the data, not from the text of the source: active = GI50 up to about 1.1 µM and inactive = higher.

As to `CC[N+]1(C)CCC(O)(/C=C/c2ccc(Cl)cc2)C(C(=O)/C=C/c2ccc(Cl)cc2)C1` (centres undefined), the GI50 with 786-0 was 3.01 µM (inactive); in the test with COLO 205, 3.55 µM (inactive); in the test with EKVX, 18.8 µM (inactive); in the test with HOP-92, 3.23 µM (inactive); with IGROV-1, 4.7 µM (inactive); in the test on K562, 2.37 µM (inactive). Besides, the GI50 in the test on M14 is > 19.9 µM (inactive); in the test on MCF7 it was 3.92 µM (inactive); with MDA-MB-231, 4.81 µM (inactive); with OVCAR-8, 4.59 µM (inactive); in the test on RPMI-8226 it was 0.327 µM (active); in the test with RXF 393, 7.66 µM (inactive). Moreover, the GI50 in the test on SF-295 is 16.2 µM (inactive); with SF-539, 2.35 µM (inactive); in the test with SK-MEL-28, 6.17 µM (inactive); in the test with SK-OV-3 it was 18 µM (inactive); with SNB-75 it was 11.3 µM (inactive); in the test with SW-620, 2.56 µM (inactive). Besides, the GI50 was 3.51 µM (inactive) in the test with TK-10 and 13.8 µM (inactive) with UACC-62.
Take `CC1(C)S[C@@H]2[C@H](N3C(=O)c4ccccc4C3=O)CN2[C@H]1NC(=O)N[C@@H]1N2C[C@@H](N3C(=O)c4ccccc4C3=O)[C@H]2SC1(C)C`: the GI50 in the test with 786-0 is 54.5 µM (inactive); in the test on COLO 205, > 100 µM (inactive); in the test with HOP-92, 42.2 µM (inactive); in the test with IGROV-1, > 100 µM (inactive); in the test with K562, > 100 µM (inactive); in the test on M14 it was > 100 µM (inactive). Besides, the GI50 in the test on MCF7 was > 100 µM (inactive); in the test on MDA-MB-231, 52.7 µM (inactive); in the test on OVCAR-8, 58.3 µM (inactive); in the test with RPMI-8226, > 100 µM (inactive); with RXF 393, 45.3 µM (inactive); with SF-295, 75.7 µM (inactive). Besides, the GI50 in the test with SF-539 was 55.1 µM (inactive); in the test with SK-MEL-28, > 100 µM (inactive); with SK-OV-3, 80.9 µM (inactive); with SNB-75, 58.2 µM (inactive); in the test on SW-620, > 100 µM (inactive); in the test on TK-10, 77.1 µM (inactive). The GI50 with UACC-62 was > 100 µM (inactive).
In the case of `CC(C)C1OC(N)=C(C#N)C1(C#N)C#N` (centres undefined), the GI50 in the test with 786-0 was 29.4 µM (inactive); in the test with COLO 205, 18.2 µM (inactive); with EKVX, 62.2 µM (inactive); in the test on HOP-92, 31.3 µM (inactive); with IGROV-1 it was 51.4 µM (inactive); in the test on K562 it was 8.49 µM (inactive). Further, the GI50 in the test with M14 was 60.7 µM (inactive); with MCF7 it was 69.7 µM (inactive); in the test on MDA-MB-231, > 100 µM (inactive); in the test on OVCAR-8, 41.9 µM (inactive); in the test on RPMI-8226, 29 µM (inactive); in the test on RXF 393 it was 44.7 µM (inactive). In addition, the GI50 was > 100 µM (inactive) with SF-295; 44.7 µM (inactive) in the test on SF-539; > 100 µM (inactive) in the test with SK-OV-3; 33.8 µM (inactive) in the test with SNB-75; 14.3 µM (inactive) in the test on SW-620; 83.4 µM (inactive) with TK-10. The GI50 in the test with UACC-62 was 32.5 µM (inactive).
For the compound `O=C(/C=C/c1ccc2ccccc2c1)NCc1ccc(C(=O)NCc2ccccc2)cc1`, the GI50 was 67.9 µM (inactive) in the test on 786-0; > 100 µM (inactive) with COLO 205; > 100 µM (inactive) with EKVX; > 100 µM (inactive) in the test on HOP-92; > 70 µM (inactive) with IGROV-1; > 31.6 µM (inactive) with K562. In addition, the GI50 in the test on M14 was > 100 µM (inactive); with MCF7, > 83.6 µM (inactive); with MDA-MB-231 it was > 100 µM (inactive); in the test with OVCAR-8, 30.4 µM (inactive); in the test with RPMI-8226 it was > 93.8 µM (inactive); in the test on RXF 393, 41.8 µM (inactive). The GI50 is 34.4 µM (inactive) in the test on SF-295; 27.5 µM (inactive) in the test with SF-539; > 100 µM (inactive) in the test on SK-MEL-28; > 100 µM (inactive) in the test with SK-OV-3; 19.6 µM (inactive) in the test with SNB-75; > 100 µM (inactive) in the test on SW-620. Further, the results for the GI50 in the test on TK-10 and in the test on UACC-62 were > 100 µM (inactive) and 97.9 µM (inactive), respectively.
Regarding `O=C1CC(c2ccc(Cl)cc2)C2(C(=O)NC(=S)NC2=O)C(c2ccc(Cl)cc2)C1` (centres undefined), the GI50 was 36.5 µM (inactive) in the test on 786-0; 16.8 µM (inactive) with COLO 205; 29 µM (inactive) with EKVX; 5.31 µM (inactive) in the test on HOP-92; 30.5 µM (inactive) with K562; 22.2 µM (inactive) in the test with M14. For the same compound, the GI50 in the test on MCF7 was 17.3 µM (inactive); with MDA-MB-231 it was 20.2 µM (inactive); with RPMI-8226, 20.6 µM (inactive); with RXF 393, 14.5 µM (inactive); with SF-295 it was 17.6 µM (inactive); in the test on SF-539, 20 µM (inactive). The GI50 is 16.1 µM (inactive) with SK-MEL-28; 14.9 µM (inactive) in the test on SK-OV-3; 15.1 µM (inactive) with SNB-75; 21.5 µM (inactive) in the test on SW-620; 41.1 µM (inactive) in the test on TK-10; 16.1 µM (inactive) with UACC-62.
Consider `O=Cc1ccc(-c2cc(C=O)c(-c3cccs3)[nH]2)s1`, for which the GI50 in the test on 786-0 is 48.4 µM (inactive); in the test on COLO 205 it was 25.1 µM (inactive); in the test on EKVX, 40 µM (inactive); with HOP-92, 32.7 µM (inactive); in the test on IGROV-1, 15.7 µM (inactive); in the test on K562, 25.9 µM (inactive). The GI50 was 24 µM (inactive) in the test with M14; 19.4 µM (inactive) in the test with MCF7; 29.6 µM (inactive) with MDA-MB-231; 21.4 µM (inactive) in the test on OVCAR-8; 53.2 µM (inactive) in the test on RPMI-8226; 35.6 µM (inactive) in the test with RXF 393. In addition, the GI50 in the test on SF-295 is 21.8 µM (inactive); in the test with SF-539 it was 24.4 µM (inactive); in the test on SK-MEL-28, 36.3 µM (inactive); in the test on SK-OV-3 it was 48.4 µM (inactive); in the test with SNB-75, 17.1 µM (inactive); in the test on SW-620 it was > 75 µM (inactive). In addition, the results for the GI50 in the test with TK-10 and with UACC-62 were 24.4 µM (inactive) and 27.5 µM (inactive), respectively.
`COC(=O)/C=C\C(C#N)(C#N)/N=C/c1ccc(C)cc1`: the GI50 with 786-0 is 1.6 µM (inactive); in the test on COLO 205, 1.97 µM (inactive); in the test with EKVX it was 14.4 µM (inactive); in the test on HOP-92, 1.09 µM (active); with IGROV-1 it was 13.1 µM (inactive); in the test with K562 it was 3.04 µM (inactive). The GI50 with M14 is 2.01 µM (inactive); in the test on MCF7, 1.67 µM (inactive); in the test on MDA-MB-231 it was 15.5 µM (inactive); with OVCAR-8, 2.25 µM (inactive); with RPMI-8226 it was 0.586 µM (active); in the test with RXF 393 it was 1.9 µM (inactive). Moreover, the GI50 is 25.2 µM (inactive) with SF-295; 4.38 µM (inactive) with SF-539; 5.5 µM (inactive) in the test on SK-MEL-28; 17.6 µM (inactive) in the test on SK-OV-3; 15.3 µM (inactive) with SNB-75; 1.95 µM (inactive) with SW-620. Further, the GI50 in the test with TK-10 is 1.8 µM (inactive); in the test with UACC-62, 14.9 µM (inactive).
As for `COc1cccc([C@@H]2C/C(=N\NC(=O)C(=O)N[C@@H](C)c3ccccc3)c3cc4c(cc3N2)OCO4)c1`, the GI50 in the test with 786-0 was 82 µM (inactive); in the test with COLO 205, 25.5 µM (inactive); with EKVX, 65.9 µM (inactive); with HOP-92, > 100 µM (inactive); in the test on K562 it was 13.2 µM (inactive); in the test on M14 it was 34.1 µM (inactive). In addition, the GI50 was 8.32 µM (inactive) in the test with MCF7; 67.5 µM (inactive) in the test with MDA-MB-231; 30.5 µM (inactive) in the test with RPMI-8226; > 100 µM (inactive) in the test with RXF 393; 36.6 µM (inactive) with SF-295; 23.8 µM (inactive) in the test with SF-539. The GI50 in the test on SK-MEL-28 is > 100 µM (inactive); in the test on SK-OV-3, > 100 µM (inactive); in the test on SNB-75 it was 22.5 µM (inactive); in the test with SW-620, 16 µM (inactive); in the test with TK-10 it was > 100 µM (inactive); with UACC-62 it was 17.1 µM (inactive).
With `O=C(Nc1ccc(N2C(=O)CSC2c2ccccc2O)cc1)c1ccc(N2C(=O)CSC2c2ccccc2O)cc1` (centres undefined), the GI50 in the test with 786-0 is 43.7 µM (inactive); in the test with COLO 205, > 100 µM (inactive); with EKVX, 79.4 µM (inactive); with HOP-92 it was 26.7 µM (inactive); in the test with IGROV-1 it was > 100 µM (inactive); in the test with K562, > 100 µM (inactive). Also, the GI50 was 23.6 µM (inactive) with M14; 46.3 µM (inactive) with MCF7; 44 µM (inactive) with MDA-MB-231; 51.3 µM (inactive) in the test on OVCAR-8; 57.9 µM (inactive) in the test on RPMI-8226; 55.6 µM (inactive) in the test with RXF 393. Further, the GI50 in the test on SF-295 is 34.4 µM (inactive); in the test with SF-539, 69.7 µM (inactive); in the test on SK-MEL-28, 39.1 µM (inactive); in the test on SK-OV-3, 23 µM (inactive); in the test with SNB-75 it was 27.7 µM (inactive); with SW-620, > 100 µM (inactive). The GI50 in the test with TK-10 was 74 µM (inactive); in the test on UACC-62, 29.1 µM (inactive).
As to `NC(=O)C[C@H](NC(=O)C1(NC(=O)[C@H](Cc2ccc(CP(=O)(O)O)cc2)NC(=O)C(=O)O)CCCCC1)C(=O)NCCCc1cccc2ccccc12`, the GI50 in the test with 786-0, with COLO 205, in the test with EKVX, in the test on HOP-92, in the test on IGROV-1 and with K562 was > 10 µM (inactive) in each case. Besides, the GI50 with M14, in the test with MCF7, in the test with MDA-MB-231, in the test on OVCAR-8, in the test on RPMI-8226 and in the test with RXF 393 was > 10 µM (inactive) each time. Further, the GI50 in the test with SF-295, in the test on SF-539, in the test on SK-MEL-28, in the test with SK-OV-3, with SNB-75 and in the test on SW-620 was > 10 µM (inactive) in each case. The GI50 in the test on TK-10 and in the test on UACC-62 was > 10 µM (inactive) each time.
